Consider 13 compounds from patent publication US5464865A, “4-aryl- and 4-arylthio-5-hydroxy-2(5H)-furanones as inhibitors of phospholipase A2” (Ortho Pharmaceutical Corporation, priority 1993, dated 1995).

Assay [1] concerns the target T1, human platelet phospholipase A2 (Homo sapiens, UniProt P14555).
T1 construct: a preparation of human platelet phospholipase A2; from tissue; host or cells: human platelets
T1 sequence (P14555 21-144): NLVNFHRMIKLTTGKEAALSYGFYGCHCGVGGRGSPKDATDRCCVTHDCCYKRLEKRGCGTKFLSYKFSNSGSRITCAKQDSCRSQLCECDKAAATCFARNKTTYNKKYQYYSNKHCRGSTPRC
The assay can be described thus: Inhibition of human platelet phospholipase A2 (14C-oleate E. coli substrate). The following applies: for IC50: pH 7.0, 37°, 60 min incubation, read-out: Inhibition of PLA2, IC50; for inhibition at 50 µM: read-out: Inhibition of PLA2, % Inhibition @ 50 μM. It counts as biochemical. The procedure: The activity of the compounds of the invention against phospholipase A2 is determined using a preparation of human platelet phospholipase A2 with a specific activity of 180 nmol/min/mg as the enzyme source. Polypropylene 15-ml test tubes are utilized as the reaction vessels. All drug samples are run in duplicate, with "blank" and "control" (no test compound) groups run in triplicate. […] Test compounds are dissolved in DMSO, and diluted to a projected final concentration of either 50 or 10 μM in 550 μl HEPES buffer at pH 7.0. A 1:7 dilution of human platelet PLA2 in HEPES buffer (5 μl) is added to each test tube, followed by gentle vortexing for 3 seconds. The reaction tubes containing drug, buffer, and enzyme are preincubated for 15 min at 37°, followed by the addition of 25 μl of ^14 C-oleate E. coli substrate. Details regarding this substrate may be found in a publication by S. Ghosh and R. Franson, Biochem. Cell. Biol., 70, 43 (1992), and references therein.
The tubes are immediately vortexed at moderate speed for 3 sec, followed by a 60 min incubation at 37° in a shaking water bath. The reaction is stopped by the addition of 3 ml of a 1:2 chloroform-methanol mixture. Additional water (1.5 ml) and chloroform (1.0 ml) are added, followed by vortexing. The lower phase is removed with a polypropylene transfer pipette, and transferred to a 13×100 mm polypropylene test tube. The organic solvent is evaporated with a stream of nitrogen, the residue is redissolved in 30 μl of a 9:1 chloroform-methanol mixture, and the solution is spotted on a channeled polyester-backed silica gel TLC plate, such as those available under the trade name PE SIL G available from Whatman Inc, Clifton, N.J.
The plate is developed with an 80:20:1 mixture of petroleum ether-diethyl ether-acetic acid. […] The plate is scored above the origin, cut along the score with scissors, and the reactant (origin) and product portions of each channel are put into separate scintillation vials. To each vial is added a scintillation cocktail (15 ml), preferably that sold under the trademark ECOLUME by ICN Biomedicals, Irvine Calif. The vials are shaken vigorously for 5 sec, and the radioactive ^14 C in each vial is measured with a scintillation counter, which provides the counts-per-minute (cpm) for each sample. The obtained cpm values are corrected for the "blank" values.
The percentage of phospholipid hydrolyzed is calculated by the formula:
Phospholipid converted=100×cpm products / (cpm products+cpm
The inhibition of phospholipase A2 by the test compounds is expressed as a percent inhibition relative to the control group:
% Inhibition=[…]

The test system of assay [2] is TPA-induced inflammation in the mouse ear. Briefly: Topical anti-inflammatory activity: TPA-induced inflammation (edema) in the mouse ear. The class given is in vivo, mouse (male CD-1). The following applies: for inhibition in vivo at 100 µg/ear: Mus musculus, @ 100 μg, 5-6 h after TPA; for Inhibition of ear edema, IC50: multiple-dose experiment, dose for 50% inhibition of weight gain. As to the method: The topical anti-inflammatory activity of the compounds is determined by measuring the degree of inhibition of TPA-induced inflammation in the mouse ear, using essentially the procedure of C. Van Arman, Clin. Pharmacol. Ther., 16, 900 (1974). Male CD-1 mice are used at seven to nine weeks of age. 12-O-tetradecanoylphorbol acetate ([…] in 20 μl of acetone) is dispensed onto the dorsum of the left ear of each mouse, and the right ear is left untreated. Ten mice so treated serve as the control group. […]
After five to six hours, the animals are sacrificed by CO2 inhalation, the ears are removed, and 7 mm circular punch biopsies of are taken from each ear and weighed. The difference in biopsy weight between treated and untreated ears is determined, and the degree of anti-inflammatory activity is expressed in terms of the percent inhibition of ear weight increase relative to the control group. In multiple-dose experiments, varying amounts of the compound to be tested are applied along with the TPA and the results are expressed as the ED50, the dose at which a 50% inhibition of weight gain is observed.

Another assay relates to PLA2. The following applies: literature; cited from earlier work.

Molecules are shown by their SMILES.

The term IC50 denotes the concentration at which inhibition is half-maximal. The term inhibition denotes the percentage by which the read-out fell short of the control. A word on the inhibition in vivo: it is the change of the read-out against control, counted positive when it falls. A lower inhibition in vivo goes with little suppression.

As for `O=C1C=C(c2ccc(/C=C/CCc3ccccc3)cc2)C(O)O1` (stereo not drawn) [Example 36, (E)-5-Hydroxy-4-(4-(4-phenyl-1-butenyl)phenyl)-2(5H)-furanone], in assay [1], the IC50 came to 24 µM and the inhibition at 50 µM is 84%. Further, in assay [2], the inhibition in vivo at 100 µg/ear worked out at 37%.

Take `C=CC(CCCCC)Oc1ccc(C2=CC(=O)OC2O)cc1` (stereo not drawn) [Example 37, 5-Hydroxy-4-(4-((1-ethenylhexyl)oxy)phenyl)-2(5H)-furanone]: in assay [1], the half-inhibitory concentration (IC50) stood at 20 µM and the inhibition at 50 µM was determined as 93%. In assay [2], the inhibition in vivo at 100 µg/ear was 34%.

As to `CCCCC/C=C/Cc1cc(C2=CC(=O)OC2O)ccc1O` (stereo not drawn) [Example 38, (E)-5-Hydroxy-4-(4-hydroxy-3-(2-octenyl)phenyl)-2(5H)-furanone], the inhibition at 50 µM in assay [1] turned out to be 85%. In assay [2], the inhibition in vivo at 100 µg/ear stood at 78% and the “Inhibition of ear edema, IC50” value amounted to 27 µg.

With `CC1=C(CCC(C)Oc2ccc(C3=CC(=O)OC3O)cc2)C(C)(C)CCC1` (stereo not drawn) [Example 39, (E)-5-Hydroxy-4-(4-((1-methyl-3-(2,6,6-trimethyl-1-cyclohexen-1-yl)propyl)oxy)phenyl)-2(5H)-furanone], in assay [1], the IC50 was determined as 20 µM and the inhibition at 50 µM was found to be 95%. In assay [2], the inhibition in vivo at 100 µg/ear amounted to 48% and the “Inhibition of ear edema, IC50” value came out at 94 µg.

As to `CCCCC/C=C\C/C=C\CCCCCCCCOc1cccc(C2=CC(=O)OC2O)c1` (stereo not drawn) [Example 40, (Z,Z)-5-Hydroxy-4-((3-(octadeca-9,12-dienyl)oxy)phenyl)-2(5H)-furanone], in assay [1], the IC50 was 7 µM and the inhibition at 50 µM stood at 100%. The inhibition in vivo at 100 µg/ear in assay [2] is 80%.

On to `C=CCc1ccc(C2=CC(=O)OC2O)cc1O` (stereo not drawn) [Example 41, 5-Hydroxy-4-(3-hydroxy-4-(2-propenyl)phenyl)-2(5H)-furanone], for which the inhibition at 50 µM in assay [1] came out at 0%. Also, in assay [2], the inhibition in vivo at 100 µg/ear worked out at 64%.

On to `O=C1C=C(c2ccccc2)C(O)O1` (stereo not drawn) [Example 42, 5-Hydroxy-4-phenyl-2(5H)-furanone], for which, in assay [1], the inhibition at 50 µM turned out to be 9%. In assay [2], the inhibition in vivo at 100 µg/ear is 45%.

Take `O=C1C=C(c2cccc(Oc3ccccc3)c2)C(O)O1` (stereo not drawn) [Example 43, 5-Hydroxy-4-(3-phenoxyphenyl)-2(5H)-furanone]: the inhibition at 50 µM in assay [1] came to 30%. Further, in assay [2], the inhibition in vivo at 100 µg/ear amounted to 52%.

On to `O=C1C=C(c2ccc(OCc3ccc(C#Cc4ccccc4)cc3)cc2)C(O)O1` (stereo not drawn) [Example 44, 5-Hydroxy-4-(4-((4-(2-phenylethynyl)phenyl)methoxy)phenyl)-2(5H)-furanone], for which, in assay [1], the inhibition at 50 µM amounted to 90%. This compound registered an inhibition in vivo at 100 µg/ear in assay [2] of 43%.

As for `CCCCCCC#Cc1ccc(C2=CC(=O)OC2O)cc1` (stereo not drawn) [Example 54, 5-Hydroxy-4-(4-(1-octynyl)phenyl)-2(5H)-furanone], in assay [1], the IC50 was determined as 5 µM and the inhibition at 50 µM was 100%. Also, the inhibition in vivo at 100 µg/ear in assay [2] is 9%.

In the case of `O=C1C=C(c2ccc(C#Cc3ccccc3)cc2)C(O)O1` (stereo not drawn) [Example 55, 5-Hydroxy-4-(4-(2-phenylethynyl)phenyl)-2(5H)-furanone], in assay [1], the IC50 was 19 µM and the inhibition at 50 µM is 67%. Further, in assay [2], the inhibition in vivo at 100 µg/ear is 79% and the “Inhibition of ear edema, IC50” value was 37 µg.

With `CCCCCCCCOc1ccc(SC2=CC(=O)OC2O)cc1` (stereo not drawn) [Example 64, 5-Hydroxy-4-(4-(octyloxy)phenylthio)-2(5H)-furanone], in assay [1], the IC50 came out at 5 µM and the inhibition at 50 µM was found to be 96%. This compound showed an inhibition in vivo at 100 µg/ear in assay [2] of 48%.

With `CC1=C(CC/C(C)=C/CCC2=CCC(C3=CC(=O)OC3O)OC2O)C(C)(C)CCC1` (stereo not drawn) [Manoalide, manoalide], in the assay on PLA2, the “inhibition of PLA2” value is “potent inhibitor of PLA2” and the “nature of PLA2 inhibition” value was “irreversible nature of PLA2 inhibition”.
